Numbered stars: 1 amine (or outer) side, 2 acyl side, 3 side chain; on linkers, the order of the positions; unused ones are H or OH. Bridge positions count the residues as written; N and C are the ends. Peptide text beside a SMILES is read from it. * marks the point of attachment. C20 diacid = O=C(O)CCCCCCCCCCCCCCCCCCC(=O)*; γGlu = O=C(O)[C@H](CCC(=O)[*:2])N[*:1]
What was measured:
[1] = molecular target: T1, human amylin 3(a) receptor (human calcitonin receptor + RAMP-3) in BHK570 cells (Homo sapiens, UniProt O60896+P30988); experiment: ASSAY (II)a functional assay, human amylin receptor (CRE luciferase); format: cell-based
T1 construct: expressed in transfected cells
Summary of the method: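 Readout is luminescence from a cAMP-responsive CRE-luc reporter, developed with LucLite for 30 min at room temperature. Cells were treated for 3 h at 37 °C in 10% FBS/DMEM buffered with 10 mM Hepes (pH 7.4).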

[2] = molecular target: T2, human amylin receptor (membranes from Amylin 3(a)/CRE-luc cells) (Homo sapiens, UniProt O60896+P30988); experiment: ASSAY (V) binding to the human amylin receptor (SPA, 125I-rat amylin);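 note: competition binding of cell membranes (35 ng/µL) mixed with SPA beads in 384-well plates at 40 µL total volume, read by scintillation counting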
T2 construct: expressed in transfected cells
T2 sequence (P30988 25-474): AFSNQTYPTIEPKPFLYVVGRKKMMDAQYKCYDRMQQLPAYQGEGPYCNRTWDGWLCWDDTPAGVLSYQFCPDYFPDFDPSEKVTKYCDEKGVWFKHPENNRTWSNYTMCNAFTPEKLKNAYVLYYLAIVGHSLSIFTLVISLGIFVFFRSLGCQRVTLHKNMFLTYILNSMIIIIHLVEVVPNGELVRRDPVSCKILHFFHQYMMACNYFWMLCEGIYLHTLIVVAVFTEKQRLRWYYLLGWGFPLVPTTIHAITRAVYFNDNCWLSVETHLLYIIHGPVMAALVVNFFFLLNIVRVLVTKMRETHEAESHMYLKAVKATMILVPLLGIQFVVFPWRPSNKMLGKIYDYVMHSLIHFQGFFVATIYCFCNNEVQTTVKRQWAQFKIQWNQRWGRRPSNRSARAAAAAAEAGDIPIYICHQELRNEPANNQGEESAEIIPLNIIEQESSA
T2 sequence (O60896 24-148 partner): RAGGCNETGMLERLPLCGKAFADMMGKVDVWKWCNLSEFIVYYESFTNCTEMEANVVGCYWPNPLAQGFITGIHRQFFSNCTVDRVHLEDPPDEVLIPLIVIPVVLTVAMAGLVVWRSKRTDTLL
Method: The binding assay was performed using scintillation proximity assay (SPA) beads (RPNQ0001) from PerkinElmer and cell membranes from the Amylin 3(a)/CRE-luc cells (as described in Assay (II)) were used. Membranes were prepared in the following way; the cells were rinsed with PBS and incubated with Versene for approximately 5 min before harvesting. The cells were flushed with PBS and the cell-suspension was centrifuged for 5 min at 1000 rpm. […] The resulting pellet was resuspended in buffer 2 and protein concentration was measured (BCA protein Assay, Pierce). The homogenate was kept cold during the whole procedure. The membranes were kept at −80° C. until use. The assay was performed in a 384 well Optiplate (PerkinElmer) in a total volume of 40 ul. Membranes were mixed with SPA beads. Final concentration of membranes 35 ng/μL final and SPA beads was 0.05 mg/well. Test-compounds were dissolved in DMSO and further diluted in assay buffer (50 mM Hepes, pH 7.4, 1 mM CaCl2, 5 mM MgCl2, 0.1% OA and 0.02% Tween20). […] Samples were analyzed on TopCounter™ (Packard). The IC50 was calculated using (one site binding competition analysis) GraphPad Prism5 as a measure of receptor affinity.

[3] = hCTR funct. EC50 divided by hAmylin-R funct. EC50
[4] = hCTR funct. EC50 over hAmylin-R funct. EC50
[5] = human functional selectivity: hCTR funct. EC50 / hAmylin-R funct. EC50
[6] = Table 5, selectivity, hCTR bind IC50 / hAmylin-R bind IC50
[7] = Table 5a, selectivity, hCTR bind IC50 / hAmylin-R bind IC50
[8] = Table 5b, selectivity, hCTR bind IC50 / hAmylin-R bind IC50
[9] = Table 5c, selectivity, hCTR bind IC50 / hAmylin-R bind IC50
[10] = Table 7, human binding selectivity, included for comparison
[11] = Table 7a (preferred compounds), human binding selectivity, included for comparison
[12] = ratio of human calcitonin receptor binding IC50 to human amylin receptor binding IC50

| Compound | Ratio hCT/hAmylin funct. [1, 3] | Ratio hCT/hAmylin funct. [1, 4] | Ratio hCT/hAmylin funct. [1, 5] | Ratio hCT/hAmylin binding [2, 6] | Ratio hCT/hAmylin binding [2, 7] | Ratio hCT/hAmylin binding [2, 8] | Ratio hCT/hAmylin binding [2, 9] | Ratio hCT/hAmylin binding [2, 10] | Ratio hCT/hAmylin binding [2, 11] | Ratio hCT/hAmylin binding [2, 12] |
| --- | --- | --- | --- | --- | --- | --- | --- | --- | --- | --- |
| CC[C@H](C)[C@H](NC(=O)[C@H](C)NC(=O)CNC(=O)[C@H](Cc1ccccc1)NC(=O)[C@H](CC(N)=O)NC(=O)[C@@H]1CCCN1C(=O)[C@H](CO)NC(=O)[C@H](CO)NC(=O)[C@H](Cc1c[nH]cn1)NC(=O)[C@H](CCCNC(=N)N)NC(=O)[C@H](CC(C)C)NC(=O)[C@H](Cc1ccccc1)NC(=O)[C@H](CC(N)=O)NC(=O)[C@H](C)NC(=O)[C@H](CC(C)C)NC(=O)[C@H](CCCNC(=N)N)NC(=O)[C@H](CCC(N)=O)NC(=O)[C@@H](NC(=O)[C@H](C)NC(=O)[C@@H]1CSSC[C@H](NC(=O)[C@H](CCCCN)NC(=O)COCCOCCNC(=O)COCCOCCNC(=O)CC[C@H](NC(=O)CCCCCCCCCCCCCCCCCCC(=O)O)C(=O)O)C(=O)N[C@@H](CC(N)=O)C(=O)N[C@@H]([C@@H](C)O)C(=O)N[C@@H](C)C(=O)N[C@@H]([C@@H](C)O)C(=O)N1)[C@@H](C)O)C(=O)N1CCC[C@H]1C(=O)N[C@@H](CO)C(=O)N[C@@H](CO)C(=O)N[C@H](C(=O)N[C@@H](CC(N)=O)C(=O)N[C@H](C(=O)NCC(=O)N[C@@H](CO)C(=O)N[C@@H](CC(N)=O)C(=O)N[C@H](C(=O)N[C@@H](Cc1ccc(O)cc1)C(N)=O)[C@@H](C)O)C(C)C)[C@@H](C)O [Example 24] | 23.1 | 23.1 | 23.1 | 90.0 | 90.0 | 90.0 | 90.0 | 90.0 | 90.0 | 90.0 |
| CC[C@H](C)[C@H](NC(=O)[C@H](C)NC(=O)CNC(=O)[C@H](Cc1ccccc1)NC(=O)[C@H](CC(N)=O)NC(=O)[C@@H]1CCCN1C(=O)[C@H](CO)NC(=O)[C@H](CO)NC(=O)[C@H](Cc1c[nH]cn1)NC(=O)[C@H](CCCNC(=N)N)NC(=O)[C@H](CC(C)C)NC(=O)[C@H](Cc1ccccc1)NC(=O)[C@H](CC(N)=O)NC(=O)[C@H](C)NC(=O)[C@H](CC(C)C)NC(=O)[C@H](CCCNC(=N)N)NC(=O)[C@H](CCC(N)=O)NC(=O)[C@@H](NC(=O)[C@H](C)NC(=O)[C@@H]1CSSC[C@H](NC(=O)[C@@H](N)CCCCNC(=O)COCCOCCNC(=O)COCCOCCNC(=O)CC[C@H](NC(=O)CCCCCCCCCCCCCCCCCCC(=O)O)C(=O)O)C(=O)N[C@@H](CC(N)=O)C(=O)N[C@@H]([C@@H](C)O)C(=O)N[C@@H](C)C(=O)N[C@@H]([C@@H](C)O)C(=O)N1)[C@@H](C)O)C(=O)N1CCC[C@H]1C(=O)N[C@@H](CO)C(=O)N[C@@H](CO)C(=O)N[C@H](C(=O)N[C@@H](CC(N)=O)C(=O)N[C@H](C(=O)NCC(=O)N[C@@H](CO)C(=O)N[C@@H](CCC(=O)O)C(=O)N[C@H](C(=O)N[C@@H](Cc1ccc(O)cc1)C(N)=O)[C@@H](C)O)C(C)C)[C@@H](C)O [Example 25] | 46.2 | 46.2 | 46.2 | 56.5 | 56.5 | 56.5 | 56.5 | 56.5 | 56.5 | 56.5 |
| CC[C@H](C)[C@H](NC(=O)[C@H](C)NC(=O)CNC(=O)[C@H](Cc1ccccc1)NC(=O)[C@H](CC(N)=O)NC(=O)[C@@H]1CCCN1C(=O)[C@H](CO)NC(=O)[C@H](CO)NC(=O)[C@H](Cc1c[nH]cn1)NC(=O)[C@H](CCCNC(=N)N)NC(=O)[C@H](CC(C)C)NC(=O)[C@H](Cc1ccccc1)NC(=O)[C@H](CC(N)=O)NC(=O)[C@H](C)NC(=O)[C@H](CC(C)C)NC(=O)[C@H](CCCNC(=N)N)NC(=O)[C@H](CCC(N)=O)NC(=O)[C@@H](NC(=O)[C@H](C)NC(=O)[C@@H]1CSSC[C@H](NC(=O)[C@@H](N)CCCCNC(=O)CC[C@H](NC(=O)CCCCCCCCCCCCCCCCCCC(=O)O)C(=O)O)C(=O)N[C@@H](CC(N)=O)C(=O)N[C@@H]([C@@H](C)O)C(=O)N[C@@H](C)C(=O)N[C@@H]([C@@H](C)O)C(=O)N1)[C@@H](C)O)C(=O)N1CCC[C@H]1C(=O)N[C@@H](CO)C(=O)N[C@@H](CO)C(=O)N[C@H](C(=O)N[C@@H](CC(N)=O)C(=O)N[C@H](C(=O)NCC(=O)N[C@@H](CO)C(=O)N[C@@H](CCC(=O)O)C(=O)N[C@H](C(=O)N[C@@H](Cc1ccc(O)cc1)C(N)=O)[C@@H](C)O)C(C)C)[C@@H](C)O [Example 27] | 22.6 | 22.6 | 22.6 | 41.3 | 41.3 | 41.3 | 41.3 | 41.3 | 41.3 | 41.3 |
| CC[C@H](C)[C@H](NC(=O)[C@H](C)NC(=O)CNC(=O)[C@H](Cc1ccccc1)NC(=O)[C@H](CC(N)=O)NC(=O)[C@@H]1CCCN1C(=O)[C@H](CO)NC(=O)[C@H](CO)NC(=O)[C@H](Cc1c[nH]cn1)NC(=O)[C@H](CCCNC(=N)N)NC(=O)[C@H](CC(C)C)NC(=O)[C@H](Cc1ccccc1)NC(=O)[C@H](Cc1c[nH]cn1)NC(=O)[C@H](C)NC(=O)[C@H](CC(C)C)NC(=O)[C@H](CCCNC(=N)N)NC(=O)[C@H](CCC(N)=O)NC(=O)[C@@H](NC(=O)[C@H](C)NC(=O)[C@@H]1CSSC[C@H](NC(=O)[C@H](CCCCN)NC(=O)CC[C@H](NC(=O)CCCCCCCCCCCCCCCCCCC(=O)O)C(=O)O)C(=O)N[C@@H](CC(N)=O)C(=O)N[C@@H]([C@@H](C)O)C(=O)N[C@@H](C)C(=O)N[C@@H]([C@@H](C)O)C(=O)N1)[C@@H](C)O)C(=O)N1CCC[C@H]1C(=O)N[C@@H](CO)C(=O)N[C@@H](CO)C(=O)N[C@H](C(=O)N[C@@H](CC(N)=O)C(=O)N[C@H](C(=O)NCC(=O)N[C@@H](CO)C(=O)N[C@@H](CCC(=O)O)C(=O)N[C@H](C(=O)N[C@@H](Cc1ccc(O)cc1)C(N)=O)[C@@H](C)O)C(C)C)[C@@H](C)O [Example 30] ({C20 diacid-γGlu}-KCNTATCATQRLAHFLRHSSPNFGAIPSSTNVGSETY-NH2; disulfide 2-7) | 12.6 | 12.6 | 12.6 | 23.6 | 23.6 | 23.6 | 23.6 | 23.6 | 23.6 | 23.6 |
| CC[C@H](C)[C@H](NC(=O)[C@H](C)NC(=O)CNC(=O)[C@H](Cc1ccccc1)NC(=O)[C@H](CC(N)=O)NC(=O)[C@@H]1CCCN1C(=O)[C@H](CO)NC(=O)[C@H](CO)NC(=O)[C@H](Cc1c[nH]cn1)NC(=O)[C@H](CCCNC(=N)N)NC(=O)[C@H](CC(C)C)NC(=O)[C@H](Cc1ccccc1)NC(=O)[C@H](CCC(=O)O)NC(=O)[C@H](C)NC(=O)[C@H](CC(C)C)NC(=O)[C@H](CCCNC(=N)N)NC(=O)[C@H](CCC(N)=O)NC(=O)[C@@H](NC(=O)[C@H](C)NC(=O)[C@@H]1CSSC[C@H](NC(=O)[C@H](CCCCN)NC(=O)CC[C@H](NC(=O)CCCCCCCCCCCCCCCCCCC(=O)O)C(=O)O)C(=O)N[C@@H](CC(N)=O)C(=O)N[C@@H]([C@@H](C)O)C(=O)N[C@@H](C)C(=O)N[C@@H]([C@@H](C)O)C(=O)N1)[C@@H](C)O)C(=O)N1CCC[C@H]1C(=O)N[C@@H](CO)C(=O)N[C@@H](CO)C(=O)N[C@H](C(=O)N[C@@H](CC(N)=O)C(=O)N[C@H](C(=O)NCC(=O)N1CCC[C@H]1C(=O)N[C@@H](CC(N)=O)C(=O)N[C@H](C(=O)N[C@@H](Cc1ccc(O)cc1)C(N)=O)[C@@H](C)O)C(C)C)[C@@H](C)O [Example 32] ({C20 diacid-γGlu}-KCNTATCATQRLAEFLRHSSPNFGAIPSSTNVGPNTY-NH2; disulfide 2-7) | 6.6 | 6.6 | 6.6 | 10.9 | 10.9 | – | – | 10.9 | 10.9 | 10.9 |
